Data reported in patent US20250177391A1, “INHIBITORS OF DDR1 AND DDR2 FOR THE TREATMENT OF ARTHRITIS” (President and Fellows of Harvard College, priority 2022, published 2025).
pIC50: −log10 of the molar value. In brackets after ≈: the same amount, converted by molar mass. Entries after “also recorded” stand apart in the source; their conditions may differ.

Legend:
[1] = Solubility in pH 7.4 phosphate buffer; assay type: physicochemical; conditions: aqueous buffer
Stability in HBSS buffer = assay type: physicochemical
[2] = system: 97 kinases (90 WT kinase and 7 mutants); assay: Kinase selectivity profiling (ScanEDGE, DiscoveRx) competition binding, qPCR readout; conditions: for Selectivity Score S(1) / Selectivity Score S(10) / Selectivity Score S(35): number of hits/number of assays, excluding mutants, 1000 nM; for # of Hits, S(35) / # of Hits, S(10) / # of Hits, S(1): screened at 1000 nM; for # of Hits, S(35): kinases inhibited by >65%; for # of Hits, S(10): kinases inhibited by >90%; for # of Hits, S(1): kinases inhibited by >99%
Excerpt: (§1) Compounds that bind the kinase active site and directly (sterically) or indirectly (allosterically) prevent kinase binding to the immobilized ligand, will reduce the amount of kinase captured on the solid support. […] Screening “hits” are identified by measuring the amount of kinase captured in test versus control samples by using a quantitative qPCR method that detects the associated DNA label. Dissociation constants (Kds) for test compound-kinase interactions can be calculated by measuring the amount of kinase captured on the solid support as a function of the test compound concentration.
(§2) Kinase-tagged T7 phage strains were grown in parallel in 24-well blocks in an E. coli host derived from the BL21 strain. E. coli were grown to log-phase and infected with T7 phage from a frozen stock (multiplicity of infection=0.4) and incubated with shaking at 32° C. until lysis (90-150 minutes). The lysates were centrifuged (6,000×g) and filtered (0.2 μm) to remove cell debris. The remaining kinases were produced in HEK-293 cells and subsequently tagged with DNA for qPCR detection. Streptavidin-coated magnetic beads were treated with biotinylated small molecule ligands for 30 minutes at room temperature to generate affinity resins for kinase assays. The liganded beads were blocked with excess biotin and washed with blocking buffer (SeaBlock (Pierce), 1% BSA, 0.05% Tween 20, 1 mM DTT) to remove unbound ligand and to reduce non-specific phage binding. Binding reactions were assembled by combining kinases, liganded affinity beads, and test compounds in 1x binding buffer (20% SeaBlock, […], 0.05% Tween 20, 6 mM DTT). Test compounds were prepared as 40x stocks in 100% DMSO and directly diluted into the assay. All reactions were performed in polypropylene 384-well plates in a final volume of 0.02 mL. The assay plates were incubated at room temperature with shaking for 1 hour and the affinity beads were washed with wash buffer (1×PBS, 0.05% Tween 20). The beads were then re-suspended in elution buffer (1×PBS, 0.05% Tween […] non-biotinylated affinity ligand) and incubated at room temperature with shaking for 30 minutes. The kinase concentration in the eluates was measured by qPCR.
(§3) The compounds were screened at 1000 nM, and results for primary screen binding interactions were determined as “% Ctrl”. % Ctrl=[(test compound signal−positive control signal)/(negative control signal−positive control signal)]*100. Negative control was 100% DMSO. Test compounds were Compounds 1-4. Positive control was a control compound.
Selectivity Score or S-score is a quantitative measure of compound selectivity for DDR2. It was calculated by dividing the number of kinases that compounds bind to by the total number of distinct kinases tested, excluding mutant variants. S=number of hits/number of assays. % Ctrl was used as a potency threshold. Selectivity score values of CS analogs provided in Table 2 reflect the number of kinases inhibited by >65% (S35), >90% (S10), or 99% (S1) by Compounds 1-4.

p38-alpha = p38-alpha (Homo sapiens (Human), UniProt Q16539); assay: Binding to p38-alpha, % of DMSO control (kinase binding screen); conditions: smaller numbers indicate stronger binding; screened at 1000 nM
Chain of p38-alpha (Q16539 whole entry): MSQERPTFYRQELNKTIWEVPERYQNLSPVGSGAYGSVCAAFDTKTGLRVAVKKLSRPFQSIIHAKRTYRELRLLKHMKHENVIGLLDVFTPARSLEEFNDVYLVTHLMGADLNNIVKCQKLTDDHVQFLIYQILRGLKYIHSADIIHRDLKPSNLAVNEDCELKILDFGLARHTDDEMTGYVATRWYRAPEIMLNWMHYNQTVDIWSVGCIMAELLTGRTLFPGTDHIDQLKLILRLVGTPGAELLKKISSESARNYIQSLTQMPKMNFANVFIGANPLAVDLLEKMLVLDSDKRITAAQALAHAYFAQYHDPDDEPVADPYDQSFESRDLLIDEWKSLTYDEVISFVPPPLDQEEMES
Excerpt: as §1, §2, §3
Table 3 provides binding affinity scores for p38-alpha as a percent relative to DMSO control. Smaller numbers indicate stronger binding.

Stability in plasma = assay type: in vitro ADME; conditions: all animals
[3] = PK following IV dosing in male SD rats; conditions: rat, in vivo, IV 1 mg/kg
Liver S9 stability, rat = assay type: in vitro ADME; conditions: SD
Caco-2 permeability = assay type: in vitro ADME; conditions: human, Caco-2; Bi-directional; read-out: Caco-2 permeability, bidirectional efflux ratio
Caco-2 = Caco-2 permeability; assay type: in vitro ADME
DDR2 (h) = DDR2 (h) (Homo sapiens (Human), UniProt Q16832); assay: DDR2 kinase inhibition, [γ-33P]-ATP filter assay; assay type: biochemical
Chain of DDR2 (h) (Q16832 22-855): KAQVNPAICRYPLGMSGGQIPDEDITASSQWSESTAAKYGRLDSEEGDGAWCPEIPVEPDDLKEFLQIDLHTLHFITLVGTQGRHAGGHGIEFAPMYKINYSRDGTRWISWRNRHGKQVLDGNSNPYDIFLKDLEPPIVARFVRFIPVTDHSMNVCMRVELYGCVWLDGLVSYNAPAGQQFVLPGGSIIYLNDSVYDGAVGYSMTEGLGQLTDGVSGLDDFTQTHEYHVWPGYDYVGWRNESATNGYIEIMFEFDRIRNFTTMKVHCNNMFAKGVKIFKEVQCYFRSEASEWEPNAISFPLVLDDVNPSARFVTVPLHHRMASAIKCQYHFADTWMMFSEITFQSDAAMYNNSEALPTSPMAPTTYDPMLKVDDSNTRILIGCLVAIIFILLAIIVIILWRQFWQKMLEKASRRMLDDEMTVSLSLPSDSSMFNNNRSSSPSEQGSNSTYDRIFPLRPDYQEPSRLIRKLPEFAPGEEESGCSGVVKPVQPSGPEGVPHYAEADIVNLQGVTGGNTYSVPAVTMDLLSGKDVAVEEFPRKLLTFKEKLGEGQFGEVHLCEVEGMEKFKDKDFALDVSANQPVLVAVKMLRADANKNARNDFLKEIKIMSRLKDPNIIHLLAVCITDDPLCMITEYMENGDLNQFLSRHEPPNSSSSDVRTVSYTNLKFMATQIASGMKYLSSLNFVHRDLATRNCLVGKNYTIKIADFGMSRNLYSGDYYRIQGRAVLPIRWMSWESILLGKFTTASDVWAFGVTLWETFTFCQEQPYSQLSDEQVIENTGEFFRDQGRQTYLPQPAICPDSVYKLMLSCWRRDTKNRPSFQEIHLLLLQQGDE
Description: (§4) DDR2 (h) was incubated with 8 mM MOPS pH 7.0, 0.2 mM EDTA, 250 μM KKSRGDYMTMQIG (SEQ TD NO: 2), 10 mM MnCl2, 10 mM magnesium acetate and [γ-33P]-ATP (specific activity and concentration as required). The reaction was initiated by the addition of the Mg/ATP mix. After incubation for 40 minutes at room temperature, the reaction was stopped by the addition of phosphoric acid to a concentration of 0.5%. An aliquot of the reaction was then spotted onto a filter and washed four times for 4 minutes in 0.425% phosphoric acid and once in methanol prior to drying and scintillation counting.

Liver S9 stability, dog = assay type: in vitro ADME; conditions: beagle
[4] = Stability in simulated synovial fluid; assay type: physicochemical
[5] = Liver S9 stability (SD rat, beagle, human), overall; assay type: in vitro ADME
DDR1 (h) = DDR1 (h) (Homo sapiens (Human), UniProt Q08345); assay: DDR1 kinase inhibition, [γ-33P]-ATP filter assay; assay type: biochemical
Chain of DDR1 (h) (Q08345 19-913): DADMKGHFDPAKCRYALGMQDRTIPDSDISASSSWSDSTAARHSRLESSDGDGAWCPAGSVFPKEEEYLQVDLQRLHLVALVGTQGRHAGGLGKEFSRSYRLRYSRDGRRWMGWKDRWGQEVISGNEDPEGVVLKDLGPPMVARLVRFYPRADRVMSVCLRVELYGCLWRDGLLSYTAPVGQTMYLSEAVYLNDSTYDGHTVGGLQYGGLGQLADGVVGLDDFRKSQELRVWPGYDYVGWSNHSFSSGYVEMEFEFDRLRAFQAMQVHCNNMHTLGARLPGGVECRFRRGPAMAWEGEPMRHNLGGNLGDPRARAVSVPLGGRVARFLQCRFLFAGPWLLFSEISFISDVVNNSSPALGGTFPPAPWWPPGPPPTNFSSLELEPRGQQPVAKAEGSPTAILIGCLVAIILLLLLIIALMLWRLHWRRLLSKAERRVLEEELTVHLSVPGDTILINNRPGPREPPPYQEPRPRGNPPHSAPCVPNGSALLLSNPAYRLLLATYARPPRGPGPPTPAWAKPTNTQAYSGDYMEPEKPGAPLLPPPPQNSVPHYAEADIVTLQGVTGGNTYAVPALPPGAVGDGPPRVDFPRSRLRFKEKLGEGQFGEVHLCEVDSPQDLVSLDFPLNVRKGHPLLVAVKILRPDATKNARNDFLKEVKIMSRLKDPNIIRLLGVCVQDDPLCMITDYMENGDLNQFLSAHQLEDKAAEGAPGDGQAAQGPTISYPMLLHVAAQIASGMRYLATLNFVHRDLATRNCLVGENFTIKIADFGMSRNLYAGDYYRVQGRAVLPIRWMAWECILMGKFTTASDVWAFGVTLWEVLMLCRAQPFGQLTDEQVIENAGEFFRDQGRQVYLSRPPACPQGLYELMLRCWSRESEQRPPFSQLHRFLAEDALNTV
Description: as §4, with “DDR1” for “DDR2”, “KKKSPGEYVNIEFG” for “KKSRGDYMTMQIG”, “ID” for “TD”, “1),” for “2), 10 mM MnCl2,”

[6] = Liver S9 stability, human; assay type: in vitro ADME
Mmp-13 = assay: Protein expression of Mmp-13 in articular cartilage after DMM (staining); assay type: in vivo, mouse; conditions: 8 weeks after DMM
Excerpt: (§5) Inhibitory induction of Ddr2 and Mmp-13 in articular cartilage of knee joints was observed after treatment with the compound 3. The protein expressions of Ddr2 and Mmp-13 were examined in the articular cartilage of mouse knee joints at 8 weeks after DMM, with or without the treatment with compound 3.

[7] = system: articular cartilage of mouse knee joints; assay: DMM surgery injurious mouse model of osteoarthritis, knee articular cartilage; assay type: in vivo; conditions: for Average articular cartilage score: treatment from 4 weeks after surgery
Description: Based on a pilot experiment,^1 the sample size of minimum 6 is required by the power analysis to achieve the specified confidence interval (95%) with at least 50% reduction of the score in the treatment group. Mouse knee joints were subjected to DMM surgery. Four weeks following the surgery, mice were treated with compound 3. Significant disparity was found in the progression of articular cartilage degeneration in knee joints with or without the treatment of compound 3 (FIG. 1).
The condition of the articular cartilage was also evaluated by the scoring system.^3 At 8 weeks after DMM surgery, the average scores for mice without and with treatment using compound 3 were 2.50 and 1.00, respectively. At 12 weeks following DMM surgery, the average scores were 4.75 for mice not treated with compound 3 and 2.83 for mice treated with compound 3. […] In addition, osteophytes and other abnormal morphology were not observed in the subchondral bone and synovial tissue in mice with or without the treatment with compound 3.

DDR2 = assay: Protein expression of DDR2 in articular cartilage after DMM (staining); assay type: in vivo, mouse; conditions: 8 weeks after DMM
Excerpt: as §5

Row | SMILES | solubility [1] [µM] | Stability in HBSS (buffer) (Stability in HBSS buffer) [min in buffer] | Selectivity Score S(1) [2] | Selectivity Score S(10) [2] | Selectivity Score S(35) [2] | # of Hits, S(35) [2] | # of Hits, S(10) [2] | # of Hits, S(1) [2] | Binding affinity score for p38-alpha as percent relative to DMSO control (p38-alpha) [% Ctrl] | Stability in plasma (Stability in plasma) | Caco-2 unidirectional permeability (in words) (Caco-2) | pIC50 (DDR2 (h)) | Stability in simulated synovial fluid [4] [days] | Liver S9 stability (in words) [5] | pIC50 (DDR1 (h)) | also measured
1 | Cc1ccc(O)cc1Nc1ccnc(Nc2cccc(S(C)(=O)=O)c2)n1 [Compound 1, 4-methyl-3-[[2-(3-methylsulfonylanilino)pyrimidin-4-yl]amino]phenol] | 16 (≈ 5.93 µg/mL) | >120 | 0.078 | 0.244 | 0.322 | 29 | 22 | 7 | 0.5 | >360 min (all | Very high | 6.59 | >5 | Rapid clearance | 7.89 | AUC(0-t) [3]: 122 ng·h/mL; C0 [3]: 548 ng/mL; clearance [3]: 137 mL/min/kg; half-life [3]: 19.1 min; Vd ([3]; read-out: VSS): 2.11 L/kg; half-life (Liver S9 stability, rat): 20 min; efflux ratio (Caco-2 permeability): 4.27; half-life (Liver S9 stability, dog): < 10 min; half-life [6]: < 10 min
2 | Cc1ccc(O)cc1Nc1ccnc(Nc2ccc(C(N)=O)cc2)n1 [Compound 2, 4-[[4-(5-hydroxy-2-methyl-anilino)pyrimidin-2-yl]amino]benzamide] | 770 (≈ 258 µg/mL) | >120 | 0.033 | 0.089 | 0.244 | 22 | 8 | 3 | 30 | >360 min (all | Very high | 6.81 | >5 | Rapid clearance | 8.05 | –
3 | COc1ccc(S(N)(=O)=O)cc1Nc1nccc(N(C)c2ccc(N)cc2)n1 [Compound 3, 3-[[4-(4-amino-N-methyl-anilino)pyrimidin-2-yl]amino]-4-methoxy-benzenesulfonamide] | 13.3 (≈ 5.33 µg/mL) | >120 | 0.056 | 0.089 | 0.178 | 16 | 8 | 5 | 83 | >360 min (all | Very high | < 5.48 | >5 | Very stable | 7.26 | Mmp-13 positive (stained) cells in articular cartilage (Mmp-13): dramatically reduced; also recorded: significant reduction; Cartilage damage score, treated versus untreated mice ([7]; 8 and 12 weeks after DMM): significant differences; Morphology of articular cartilage ([7]; 8 weeks after DMM surgery): localized chondrocyte clusters, but no fibrillation; also recorded: only chondrocyte clusters; Average articular cartilage score ([7]; 8 weeks after DMM surgery): 1.00; Morphology of articular cartilage ([7]; 12 weeks after DMM surgery): only localized absence of the proteoglycans; also recorded: only localized proteoglycan degradation; Average articular cartilage score ([7]; 12 weeks after DMM surgery): 2.83; Progressive process of articular cartilage degeneration ([7]; DMM-induced, mouse knee joints): Significant delay; also recorded: dramatically delayed; Osteophytes and other abnormal morphology in subchondral bone and synovial tissue ([7]; mice with or without treatment): not observed; DDR2 positive (stained) cells in articular cartilage (DDR2): dramatically reduced; also recorded: significant reduction
4 | COc1cc(Nc2nccc(Nc3ccc(N)cc3)n2)cc(S(C)(=O)=O)c1 [Compound 4, N4-(4-aminophenyl)-N2-(3-methoxy-5-(methylsulfonyl)phenyl)pyrimidine-2,4-diamine] | 213 (≈ 82.1 µg/mL) | >120 | 0.022 | 0.122 | 0.233 | 21 | 11 | 2 | 87 | >360 min (all | – | 5.80 | >5 | Very stable | 7.18 | –
